For test [1], the target named is α-amylase. The experiment in a line: α-Amylase inhibition (DNS method). Type of test: biochemical. The conditions noted are these: 1% soluble starch as substrate. How it is done: α-Amylase inhibitory activity was measured using the dinitrosalicylic acid (DNS) method developed by Bernfeld (Methods in Enzymology, 1955, Vol. 1, pp 149-158), improved by Jamieson et al (Journal of Dental Research 1969; 48(3): 483) and adopted for testing inhibitory potential of test substances by M. C. M da Silva et al (2004, Pesq. Agropec. bras., Brasilia, 2004; 39(3); pp 201-208) using 1% soluble starch as substrate.
The test substances (α-mangostin, γ-mangostin and AR 933) were pre-incubated with α-amylase 100 μL (10-25 U/mL) at room temperature for 20 minutes prior to the addition of 100 μL of the substrate solution followed by incubation at 37° C. for 10 minutes. The reactions were stopped by the addition of 200 μL of DNS reagent, followed by color development by placing the tubes in boiling water for 5 minutes. After addition of 3.6 mL distilled water, the absorbance was read at 470 nm. Known α-amylase inhibitor was used as positive control and vehicle was used as negative control. Assays were carried out at least in duplicate. Percentage inhibition will be calculated by comparing mean test OD with mean control OD. {% inhibition=[(COD−TOD)/COD]×100}. The IC50 values were calculated by linear regression analysis of the dose response curve.

Test [2] deals with 3T3-L1 pre-adipocyte cells. The experiment in a line: Pro-lipolytic activity in differentiated adipocytes (free glycerol release). It is filed as cell-based, mouse. The following applies: 3T3-L1 (Table IV). How it is done: Similarly, the pro-lipolytic activity of the ethyl actate extract (LI/DD-II/054A/01) of Sphaeranthus indicus was assessed in differentiated/mature adipocytes using 3T3-L1 pre-adipocyte cells. The lipolytic activity was assessed in mature adipocytes by measuring free glycerol secreted into the culture medium as per the procedure of Adipolysis Assay Kit (Chemicon International, USA).
The lipolytic activity was assessed in mature adipocytes as per the procedure of Chemicon International, USA, by measuring free glycerol secreted into the culture medium. One hundred thousand 3T3-L1 […] pre-adipocyte cells in Dulbecco's Modified Eagles Medium (DMEM) containing 10% Fetal Bovine Serum (FBS) were taken into each well of a 24-well plate and incubated for 48 h at 37° C. and 5% CO2. The differentiation of pre-adipocyte cells was initiated in a differentiation medium containing 10 μg/ml insulin, 1.0 μM dexamethasone, and 0.5 mM isobutylmethylxanthine (IBMX). The cells were differentiated for 5 days and then the culture medium was removed. […] The samples and the controls were incubated for 15 min, and the absorbance was read at 540 nm. […]

The test system of test [3] is 3T3-L1 mouse pre-adipocyte cells. The experiment in a line: Inhibition of lipid accumulation in differentiated adipocytes (Oil Red O). Type of test: cell-based. The conditions noted are these: 10 μg/ml; 3T3-L1 (Table III). The protocol:
The inhibition of fat accumulation in the treated cells was compared with the mock treated differentiated adipocytes and percentage inhibition was measured.
One hundred thousand 3T3-L1 […] pre-adipocyte cells in Dulbecco's Modified Eagles Medium (DMEM) containing 10% Fetal Bovine Serum (FBS) were taken into each well of a 24-well plate and incubated for 48 h at 37° C. and 5% CO2. The differentiation of pre-adipocyte cells was initiated in a differentiation medium containing 10 μg/ml insulin, 1.0 μM dexamethasone, and 0.5 mM isobutylmethylxanthine (IBMX) for 48 h. After this the medium was replaced by DMEM containing 10 μg/ml insulin and incubated for 3 days. Then the differentiating cells were treated 10 μg/ml of Sphaeranthus indicus ethyl acetate extract (LI/DD-II/054A/01) and 0.5 μg/ml of 7-hydroxyfrullanolide (LI054A01) and maintained in the medium for another 3-5 days. The cells incubated with 0.1% DMSO were considered as the vehicle control. After the incubation period, cells were washed with phosphate buffered saline (PBS) and fixed with 10% buffered formalin for 1 h at room temperature. One small aliquot of cell suspension was separated for cell counting in hemocytometer chamber. Fixed cells were stained with Oil Red O solution to measure the cellular neutral lipid accumulation. Briefly, cells were washed with PBS, fixed with 10% buffered formalin and stained with Oil Red O solution (0.5 g in 100 ml isopropanol) for 10 min. After removing the staining solution, the dye retained in the cells will be eluted into isopropanol and OD measured at 550 nm. The inhibition of fat accumulation in the treated cells was compared with the mock treated differentiated adipocytes. The treated and control cells were also analyzed and compared for inhibition of lipid accumulation visually under microscope and recorded digitally in suitable image capture system. The anti-adipogenic activities shown by Sphaeranthus Indicus ethyl acetate extract (LI/DD-II/054A/01) and LIO054A01 are summarized in the following table.

The target in test [4] is α-glucosidase. The experiment in a line: α-Glucosidase inhibition (p-nitrophenyl α-D-glucopyranose). Type of test: biochemical. The conditions noted are these: pH 7, room temperature. The protocol:
α-Glucosidase inhibitory activity was measured using the in vitro method developed by D. Prasanth et al., (Fitoterapia 2001, 72, 686-688). In a micro plate well was taken 50 μL of α-glucosidase enzyme (0.4 U/mL), and treated with 90 μL of 100 mM phosphate buffer (pH 7) and 10 μL test substances (α-mangostin, γ-mangostin and AR 933) or vehicle control. The contents were mixed well and the reaction mixtures were incubated at room temperature for 5 min, and then added 50 μL of p-nitrophenyl α-D-glucopyranose (20 mM) as substrate. The contents were mixed well and again incubated at room temperature for 15 min. The reaction was stopped by the addition of 30 μL of sodium carbonate solution (135 mM). The absorbance was measured at 405 nm using micro plate reader. Control and test blank ODs were obtained by replacing enzyme with buffer. Percentage inhibitions were calculated by comparing mean test OD with mean control OD. {% inhibition=[(COD−TOD)/COD]×100}. The IC50 values were calculated by linear regression analysis of the dose response curve.

We go through two compounds from patent US9241964B2, “Composition from Sphaeranthus indicus and Garcinia mangostana for the control of metabolic syndrome” (LAILA NUTRACEUTICALS, priority 2009, dated 2016).

In the case of `COc1c(O)cc2oc3cc(O)c(CC=C(C)C)c(O)c3c(=O)c2c1CC=C(C)C` [α-mangostin], the “IC50 (μg/ml) for α-amylase” value in test [1] is 3.99 µg/mL. Besides, the “% acceleration of lipolysis 25 μg/ml” value in test [2] was found to be 156.56%. Moreover, in test [3], the “% inhibition of Lipid accumulation 10 μg/ml” value was determined as 16.06%. Further, in test [4], the “IC50 (μg/ml) for α-glucosidase” value came to 0.30 µg/mL.
In the same order, the values of `CC(C)=CCc1c(O)cc2oc3cc(O)c(O)c(CC=C(C)C)c3c(=O)c2c1O` [γ-mangostin] are 3.88 µg/mL, 4.52%, 61.57% and 0.16 µg/mL.
